Results as given in publication PMC11602988 (The Journal of Biological Chemistry, 2024).
Where a chain is given by its changes, count along the chain named. Where two headings read alike, the source gives them in different places.

Assays:
OCT1 WT = biological target: T1, OCT1 WT (Homo sapiens, UniProt O15245); experiment: Uptake screening (transport ratio over empty vector), HEK293 cells overexpressing OCT1 WT; format: cell-based; parameters: expressed in transfected cells;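 note: intracellular substrate levels quantified by HPLC–tandem mass spectrometry after uptake in HBSS+ buffer at 37 °C, stable Flp-In HEK293 lines, fold change versus empty vector–transfected cells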
T1 sequence (O15245 1-554): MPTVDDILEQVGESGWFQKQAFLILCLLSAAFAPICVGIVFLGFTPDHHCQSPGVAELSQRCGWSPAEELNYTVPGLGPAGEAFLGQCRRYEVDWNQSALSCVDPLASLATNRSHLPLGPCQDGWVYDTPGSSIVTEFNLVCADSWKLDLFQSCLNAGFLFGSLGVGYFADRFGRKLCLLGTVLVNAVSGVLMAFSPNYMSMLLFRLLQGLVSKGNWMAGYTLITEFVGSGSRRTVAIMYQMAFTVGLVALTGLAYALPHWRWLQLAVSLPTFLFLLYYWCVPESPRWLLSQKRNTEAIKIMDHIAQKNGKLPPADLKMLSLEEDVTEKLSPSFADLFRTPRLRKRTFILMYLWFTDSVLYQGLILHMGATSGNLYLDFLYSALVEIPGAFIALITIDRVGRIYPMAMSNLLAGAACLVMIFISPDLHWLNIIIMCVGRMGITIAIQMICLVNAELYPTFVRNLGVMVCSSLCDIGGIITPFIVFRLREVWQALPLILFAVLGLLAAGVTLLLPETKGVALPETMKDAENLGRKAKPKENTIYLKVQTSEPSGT

OCT1 Phe244Ala variant = biological target: T2, OCT1 Phe244Ala variant (Homo sapiens, UniProt O15245, F244A); experiment: Uptake screening (transport ratio over empty vector), HEK293 cells overexpressing OCT1 Phe244Ala variant; format: cell-based; parameters: expressed in transfected cells;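 note: stably transfected HEK293 cells, intracellular substrate quantified by HPLC-tandem mass spectrometry in cell lysates, uptake in HBSS+ buffer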
T2 sequence (O15245 1-554 F244A): T1 sequence (O15245 1-554) with F244A
Method: All experiments were carried out using transporter-overexpressing HEK293 cells. […] Cells were cultivated in Dulbecco’s Modified Eagle’s medium supplemented with 10% fetal calf serum, 100 U/ml penicillin, and 100 μg/ml streptomycin. Cells were passaged twice a week and kept in culture for no longer than 30 passages.
For uptake studies, 300,000 HEK293 cells were plated in each well of 24-well plates precoated with poly-D-lysine 48 prior to the experiment. On the day of the experiment, cells were washed once with prewarmed to 37 °C HBSS+ (Hank’s balanced salt solution supplemented with 10 mM Hepes, both Sigma-Aldrich). […] Uptake was stopped by adding ice-cold HBSS+ and cells were washed twice with ice-cold buffer before cell lysis was done using 80% acetonitrile containing an appropriate internal standard for eventual mass spectrometry. Relative quantification was done by comparison of transporter-overexpressing cells to empty vector–transfected controls. For uptake kinetic experiments, cells were incubated with increasing concentrations of substrate dissolved in HBSS+. Absolute quantification was done later by comparison to a standard curve in lysis buffer with known concentration.
Intracellular drug concentrations were detected and quantified by HPLC coupled to mass spectrometry. […] Substance-specific conditions were used to adjust the retention times of the analytes.
Transport ratios were determined as relative fold-increase of the uptake in transporter-overexpressing cells over empty vector–transfected control cells. For transport kinetic experiments, absolute substrate quantification was done by signal comparison to a standard curve with known concentrations. Net uptake was then determined by subtracting the uptake into empty vector–transfected cells from transporter-overexpressing cells. […] Vmax defines the maximum transport velocity, Km refers to the substrate concentration required to reach half vmax. The intrinsic clearance Clint is the ratio of vmax over Km.

[1] = uptake ratio over empty vector, HEK293 cells overexpressing OCT1 WT
[2] = Phe244Ala uptake relative to OCT1 WT
[3] = uptake ratio over empty vector, HEK293 cells overexpressing OCT1 Phe244Ala
[4] = Phe244Ala uptake relative to WT
[5] = uptake ratio of OCT1 WT-overexpressing HEK293 cells over empty vector
[6] = uptake ratio of OCT1 Phe244Ala-overexpressing HEK293 cells over empty vector

SMILES	Mean_transport_ratio_WT (OCT1 WT; [1])	relative_Phe244Ala_uptake_in% (OCT1 Phe244Ala variant; [2]) [%]	Mean_transport_ratio_Phe244Ala (OCT1 Phe244Ala variant; [3])	also measured
COc1cc2c(cc1OC)[C@H](C)NCC2 [Salsolidine]	1.647	32.677	1.211	–
CNC(=C[N+](=O)[O-])NCCSCc1ccc(CN(C)C)o1 [Ranitidin]	17.125	66.532	11.729	–
CN(C)CCc1c[nH]c2ccc(C[C@H]3COC(=O)N3)cc12 [(S)-Zolmitriptan]	–	–	–	Mean_transport_ratio_WT (OCT1 WT): 30.121; Mean_transport_ratio_Phe244Ala (OCT1 Phe244Ala variant): 8.091; relative_Phe244Ala_uptake_in% (OCT1 Phe244Ala variant): 24.350%
CCC1(c2cccc(O)c2)CCCCN(C)C1 (stereo not shown) [Meptazinol]	–	–	–	Mean_transport_ratio_WT (OCT1 WT): 1.477; Mean_transport_ratio_Phe244Ala (OCT1 Phe244Ala variant): 1.571; relative_Phe244Ala_uptake_in% (OCT1 Phe244Ala variant): 119.786%
CNS(=O)(=O)Cc1ccc2[nH]cc(CCN(C)C)c2c1 [Sumatriptan]	32.304	115.380	37.118	–
CCN1CCCC1CNC(=O)c1cc(S(=O)(=O)CC)c(N)cc1OC (stereo not shown) [Amisulpride]	8.435	–	8.279	relative_Phe244Ala_uptake_in% (OCT1 Phe244Ala variant; [4]): 97.893%
COc1cc2c(cc1OC)-c1cc3ccc4c(c3c[n+]1CC2)OCO4 [Epiberberine]	22.185	–	18.92	relative_Phe244Ala_uptake_in% (OCT1 Phe244Ala variant; [4]): 84.587%
CNC[C@H](O)c1cccc(O)c1 [Phenylephrine]	9.854	29.477	3.61	–
CC(C)(C)NCC(O)c1ccc(O)c(CO)c1 (stereo not shown) [Salbutamol]	8.785	142.307	12.079	–
CC[C@H](CO)NCCN[C@@H](CC)CO [(R,S)-Ethambutol]	–	–	–	Mean_transport_ratio_WT (OCT1 WT): 17.35; Mean_transport_ratio_Phe244Ala (OCT1 Phe244Ala variant): 12.934; relative_Phe244Ala_uptake_in% (OCT1 Phe244Ala variant): 72.992%
NCc1ccc(O)cc1 [Hydroxybenzylamin]	–	22.795	–	Mean_transport_ratio_WT (OCT1 WT; [5]): 2.288; Mean_transport_ratio_Phe244Ala (OCT1 Phe244Ala variant; [6]): 1.294
CN=C(NC#N)NCCSCc1nc[nH]c1C [Cimetidin]	2.536	–	2.588	relative_Phe244Ala_uptake_in% (OCT1 Phe244Ala variant; [4]): 103.374%
CNC1(C)C2CCC(C2)C1(C)C (stereo not shown) [Mecamylamine]	–	-72.241	–	Mean_transport_ratio_WT (OCT1 WT; [5]): 1.579; Mean_transport_ratio_Phe244Ala (OCT1 Phe244Ala variant; [6]): 0.581
[H]/N=C(\N/C(=N/[H])Nc1ccc(Cl)cc1)NC(C)C [Proguanil]	9.904	103.560	10.221	–
Nc1nc(=O)n([C@@H]2CS[C@H](CO)O2)cc1F [Emtricitabine]	2.95	–	2.01	relative_Phe244Ala_uptake_in% (OCT1 Phe244Ala variant; [4]): 51.794%
CC[N+](CC)(CC)CC(=O)Nc1c(C)cccc1C [N-Ethyllidocaine]	41.537	–	53.323	relative_Phe244Ala_uptake_in% (OCT1 Phe244Ala variant; [4]): 129.074%
C[N@+]1(CC2CC2)CC[C@]23c4c5ccc(O)c4O[C@H]2C(=O)CC[C@@]3(O)[C@H]1C5 [Methylnaltrexone]	–	139.178	–	Mean_transport_ratio_WT (OCT1 WT; [5]): 47.714; Mean_transport_ratio_Phe244Ala (OCT1 Phe244Ala variant; [6]): 66.016
NCC(O)c1ccc(O)cc1 (stereo not shown) [Octopamine]	–	54.574	–	Mean_transport_ratio_WT (OCT1 WT; [5]): 3.942; Mean_transport_ratio_Phe244Ala (OCT1 Phe244Ala variant; [6]): 2.606
CC(C)NC[C@H](O)COc1ccc(O)cc1 [S-Prenalterol]	3.969	112.541	4.341	–
CNC[C@H](O)c1cccc(O)c1 [(R)-Phenylephrine]	8.777	36.831	3.864	–

SMILES	Mean_transport_ratio_WT (OCT1 WT; [1])	relative_Phe244Ala_uptake_in% (OCT1 Phe244Ala variant; [2]) [%]	Mean_transport_ratio_Phe244Ala (OCT1 Phe244Ala variant; [3])	also measured
CC[N+](C)(C)c1cccc(O)c1 [Edrophonium]	25.947	–	26.201	relative_Phe244Ala_uptake_in% (OCT1 Phe244Ala variant; [4]): 101.017%
[H]/N=C(/N)N/C(=N/[H])NCCc1ccccc1 [Phenformin]	29.083	112.534	32.603	–
NC(=Nc1ccccc1)Nc1ccccc1 [Diphenylguanidine]	–	–	–	Mean_transport_ratio_WT (OCT1 WT): 2.037; Mean_transport_ratio_Phe244Ala (OCT1 Phe244Ala variant): 1.952; relative_Phe244Ala_uptake_in% (OCT1 Phe244Ala variant): 91.817%
CCC(NC(C)C)C(O)c1ccc(O)c(O)c1 (stereo not shown) [Isoetharine]	–	103.988	–	Mean_transport_ratio_WT (OCT1 WT; [5]): 15.766; Mean_transport_ratio_Phe244Ala (OCT1 Phe244Ala variant; [6]): 16.355
N=C(N)NC(=O)c1nc(Cl)c(N)nc1N [Amiloride]	–	–	–	Mean_transport_ratio_WT (OCT1 WT): 37.597; Mean_transport_ratio_Phe244Ala (OCT1 Phe244Ala variant): 23.504; relative_Phe244Ala_uptake_in% (OCT1 Phe244Ala variant): 61.492%
NCC(O)c1cccc(O)c1 (stereo not shown) [Norphenylephrine]	–	40.709	–	Mean_transport_ratio_WT (OCT1 WT; [5]): 2.898; Mean_transport_ratio_Phe244Ala (OCT1 Phe244Ala variant; [6]): 1.772
CC(=O)OC(C)C[N+](C)(C)C (stereo not drawn) [Acetyl-beta-Methylcholin]	46.311	–	7.521	relative_Phe244Ala_uptake_in% (OCT1 Phe244Ala variant; [4]): 14.392%
O=C(O[C@H]1C[C@H]2CC[C@@H](C1)[N+]21CCCC1)C(O)(c1ccccc1)c1ccccc1 [Trospium]	27.542	106.940	29.384	–
COc1cc(CCN)ccc1O [3-Methoxy-p-tyramine]	–	27.805	–	Mean_transport_ratio_WT (OCT1 WT; [5]): 3.981; Mean_transport_ratio_Phe244Ala (OCT1 Phe244Ala variant; [6]): 1.829
Cc1cc(O)cc(C)c1OCC(C)N (stereo not shown) [4-Hydroxy mexiletine]	–	23.363	–	Mean_transport_ratio_WT (OCT1 WT; [5]): 3.163; Mean_transport_ratio_Phe244Ala (OCT1 Phe244Ala variant; [6]): 1.505
CN(C)c1ccc(/C=C/c2cc[n+](C)cc2)cc1 [ASP^+, 4-(4-(dimethylamino)styryl)-N-methylpyridinium]	12.491	–	8.237	relative_Phe244Ala_uptake_in% (OCT1 Phe244Ala variant; [4]): 62.977%
C[N+]1(CCC(C(N)=O)(c2ccccc2)c2ccccc2)CCCCC1 [Fenpiverinium]	–	131.946	–	Mean_transport_ratio_WT (OCT1 WT; [5]): 38.408; Mean_transport_ratio_Phe244Ala (OCT1 Phe244Ala variant; [6]): 50.359
C[N+]12CCC(CC1)C(OC(=O)C(O)(c1ccccc1)c1ccccc1)C2 (stereo not shown) [Clidinium]	30.863	–	34.518	relative_Phe244Ala_uptake_in% (OCT1 Phe244Ala variant; [4]): 112.238%
N=C(N)NC(=O)Cc1c(Cl)cccc1Cl [Guanfacine]	–	86.485	–	Mean_transport_ratio_WT (OCT1 WT; [5]): 3.273; Mean_transport_ratio_Phe244Ala (OCT1 Phe244Ala variant; [6]): 2.966
c1c2c(cc3c1OCO3)-c1cc3ccc4c(c3c[n+]1CC2)OCO4 [Coptisine]	12.003	–	10.972	relative_Phe244Ala_uptake_in% (OCT1 Phe244Ala variant; [4]): 90.627%
CC(C)[N+](C)(CCOC(=O)C1c2ccccc2Oc2ccccc21)C(C)C [Propanthelinbromid]	8.263	191.888	14.937	–
CN[C@@H]1CCc2[nH]c3ccc(C(N)=O)cc3c2C1 [R-Frovatriptan]	16.171	64.599	10.8	–
CC(=O)Nc1ccc(OCC(O)CNC(C)C)cc1 (stereo not shown) [Practolol]	2.092	83.607	1.913	–
Cc1cccc(C)c1OCC(C)N (stereo not shown) [Mexiletine]	–	53.635	–	–
